The target of test [1] is T1, Kappa-type opioid receptor (Homo sapiens, UniProt P41145). The test is described as follows: Displacement of [3H]U69593 from kappa opioid receptor (unknown origin) expressed in human U2OS cell membrane by competitive radioligand binding assay. Format: cell membranes. For orientation: Displacement assays read how much labelled ligand stays bound in the presence of the test substance.

The target of test [2] is T1, Kappa-type opioid receptor. The test can be described thus: Agonist activity at human kappa opioid receptor expressed in CHO-K1 cells assessed as inhibition of forskolin-stimulated cAMP accumulation by HitHunter assay based luminescence analysis. Format: functional, cell-based. In general terms: cAMP levels reflect the balance of adenylyl cyclase and phosphodiesterase activity.

For test [3], the target named is T2, Alpha-2A adrenergic receptor (Homo sapiens, UniProt P08913).
T2 sequence (P08913 whole entry): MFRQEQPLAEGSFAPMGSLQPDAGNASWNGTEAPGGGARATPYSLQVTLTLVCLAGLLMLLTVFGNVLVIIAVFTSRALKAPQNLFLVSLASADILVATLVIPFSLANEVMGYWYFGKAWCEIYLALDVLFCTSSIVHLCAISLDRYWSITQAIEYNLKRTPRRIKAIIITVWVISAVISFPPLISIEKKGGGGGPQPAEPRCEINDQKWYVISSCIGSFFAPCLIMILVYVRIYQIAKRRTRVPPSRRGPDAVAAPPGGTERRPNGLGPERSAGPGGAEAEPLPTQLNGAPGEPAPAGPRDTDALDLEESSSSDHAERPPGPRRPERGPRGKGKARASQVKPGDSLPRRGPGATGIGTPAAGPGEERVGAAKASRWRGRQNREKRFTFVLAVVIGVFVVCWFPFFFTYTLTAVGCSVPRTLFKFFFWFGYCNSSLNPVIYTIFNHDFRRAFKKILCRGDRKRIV
The test can be described thus: Binding affinity to alpha2A adrenergic receptor (unknown origin) by radioligand displacement assay.

Test [4] is described as follows: Binding affinity to alpha7 […] receptor (unknown origin) by radioligand displacement assay. Set-up: species or system Homo sapiens.
Test [5] deals with T1, Kappa-type opioid receptor. The test can be described thus: Binding affinity to kappa opioid receptor (unknown origin) by radioligand displacement assay.
Test [6] has as its target Sodium-dependent noradrenaline transporter (Homo sapiens, UniProt P23975).
In the next test the target is Mu-type opioid receptor (Homo sapiens, UniProt P35372). The test is described as follows: Agonist activity at human mu opioid receptor expressed in CHO-K1 cells assessed as inhibition of forskolin-stimulated cAMP accumulation by HitHunter assay based luminescence analysis. Format: functional, cell-based.
Test [7] concerns the target 5-hydroxytryptamine receptor 5A (Homo sapiens, UniProt P47898). The test is described as follows: Binding affinity to 5HT5A receptor (unknown origin) by radioligand displacement assay.
In test [8] the target is T3, Alpha-1A adrenergic receptor (Homo sapiens, UniProt P35348).
T3 sequence (P35348 whole entry): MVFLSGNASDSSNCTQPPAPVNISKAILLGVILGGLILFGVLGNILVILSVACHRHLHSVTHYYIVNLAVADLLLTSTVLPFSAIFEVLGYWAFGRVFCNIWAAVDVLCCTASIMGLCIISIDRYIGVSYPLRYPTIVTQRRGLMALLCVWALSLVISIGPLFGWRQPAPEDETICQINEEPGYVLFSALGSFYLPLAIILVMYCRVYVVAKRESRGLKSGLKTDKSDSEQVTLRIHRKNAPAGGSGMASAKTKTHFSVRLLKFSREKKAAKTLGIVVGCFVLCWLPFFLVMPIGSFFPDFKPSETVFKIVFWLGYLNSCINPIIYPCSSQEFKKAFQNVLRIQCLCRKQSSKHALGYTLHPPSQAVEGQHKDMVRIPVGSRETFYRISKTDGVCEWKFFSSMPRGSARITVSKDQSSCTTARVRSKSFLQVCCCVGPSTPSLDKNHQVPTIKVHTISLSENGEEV
The test is described as follows: Binding affinity to alpha1A adrenergic receptor (unknown origin) by radioligand displacement assay.

As to `C/C=C1/CN2CC[C@]34C(=C(C(=O)OC)[C@H]1C[C@H]23)Nc1ccc(I)cc14`, the Ki in test [1] amounted to 0.087 nM; in test [3] it was 732 nM; in [4], 5.49 µM; in test [5], 1 nM; in [6], 3.44 µM; in test [7], 829 nM. In addition, the Ki in test [8] amounted to 883 nM. The EC50 in [2] turned out to be 5.7 nM; at Mu-type opioid receptor, 41 µM.

The term Ki denotes a measure of affinity in units of concentration, obtained from inhibition or displacement. As usually defined, the EC50 is the concentration at which the effect is half-maximal.

The values above are taken from ChEMBL document CHEMBL6074668 (J Med Chem, 2024).
